Laboratory results from patent US4371544A, “Pharmaceutical composition containing 1,1,3,5-substituted biuret compound” (Taiho Pharmaceutical Company Limited, priority 1979, dated 1983).

Experiments:
[1] = system: ddy strain of male mice; test: Acute toxicity (oral, mice, 7 days observation); type: in vivo
Procedure: (§1) Next, several tests for determining the pharmacological properties, in that acute toxicity, anti-pyretic activity, analgesic activity and anti-inflammatory activity of the present 1,1,3,5-substituted biuret compounds of the formula (1) were conducted and the test results are shown in Table (2). In the tests, each compounds to be tested was used as a suspension in 0.25% carboxymethylcellulose solution. Methods for testing are explained as follows:
The ddy strain of male mice (body weight, 20-25 g) were used as test animals. The mice were fasted overnight and the compound to be tested was administered orally. […] The lethal dose (mg/kg, body weight) of the test compound was determined in connection with the death number of mice/the number of mice tested. In Table 2, the values indicated with Δ marks are 50% lethal dose, LD50 (mg/kg, body weight).

[2] = system: ddy strain of male mice; test: Analgesic activity, acetic acid-induced stretching method; type: in vivo, mouse (ddy); settings: for inhibition in vivo at 100 mg/kg: read-out: Analgesic activity, acetic acid-induced stretching method, inhibitory ratio
Procedure: as §1
According to the method reported by Koster et al., [Fed. Proc., Vol. 18, pp. 412 (1959)], the ddy strain of male mice (body weight, 20-25 g) were used as test animals. The mice were fasted overnight, 100 mg/kg body weight of the test compound was administered orally, then 1 hour after the administration, 0.2 ml of 0.7% acetic acid solution was injected intraperitoneally. The acetic acid-induced stretching symptom of mouse was observed. Analgesic activity of the test compound was calculated as the inhibitory ratio (%). In Table 2, the values in parentheses show the data obtained from the test by using the dosage other than 100 mg/kg body weight. Further, the values indicated with Δ marks show 50% effective dose, ED50 (mg/kg body weight).

[3] = system: ddy strain of male mice; test: Analgesic activity, Haffner method (morphine threshold dose, clamp); type: in vivo, mouse (ddy); settings: for ED50: oral, Δ mark, range in parentheses
Procedure: as §1
According to the modified method reported by Fujimura et. al., [Bulletin of the Institute for Chemical Research, Kyoto University, No. 25, pp. 36 (1951)], the ddy strain of male mice (body weight, 20-25 g) were used as test animals. The mice were fasted overnight, 100 mg/kg body weight of the test compound was administered orally, then 45 minutes after the administration, the threshold amount (1.5-2.5 mg/kg body weight) of morphine hydrochloride was injected subcutaneously. Then 1-hour pain reaction of the mouse caused by a clamp was observed. Analgesic activity of the test compound was calculated as the inhibitory ratio (%). In Table 2, the values in parentheses show the data obtained from the test by using the dosage other than 100 mg/kg body weight. Further, the values indicated with Δ marks show 50% effective dose, ED50 (mg/kg body weight).

[4] = system: Wistar strain of male rats; test: Anti-pyretic activity (dry-yeast-induced fever); type: in vivo, rat (Wistar); settings: oral (dose not given), up to 4 hours after administration
Procedure: as §1
According to the method reported by Tanabe [Folia Pharmacologia Japonica, Vol. 73, pp. 803 (1977)], the Wistar strain of male rats (150-180 g, body weight) were used as test animals. The rats were fasted overnight, and 1 ml/100 g (body weight) of 10% dry-yeast suspension were subcutaneously injected on the back of the rats. Five hours after the injection, the test compound was administered orally, then the body temperature of the rat was measured at time sequences. Anti-pyretic activity of the test compound was determined as the FI (febril index) by integrating pyrogenetic curve up to 4 hours after the administration of the test compound with time, and indicated as inhibitory ratio (%) shown by the following formula, [formula]

[5] = 100 mg/kg oral, 1 hour before acetic acid
[6] = 100 mg/kg oral, 45 minutes before morphine hydrochloride

| Compound | Acute toxicity: death number of mice/number of mice tested ([1]; 2000 mg/kg oral) | Acute toxicity: death number of mice/number of mice tested ([1]; 1000 mg/kg oral) | Analgesic activity, acetic acid-induced stretching method, inhibitory ratio [2, 5] | Analgesic activity, Haffner method, inhibitory ratio [3, 6] | Anti-pyretic activity, inhibitory ratio (febril index) [4] | also measured |
| --- | --- | --- | --- | --- | --- | --- |
| CN(C)C(=O)NC(=O)Nc1ccccc1F [Compound No. 2, 1,1-Dimethyl-5-(2-fluorophenyl)biuret] | 0/4 | – | – | – | – | inhibition in vivo at 100 mg/kg ([2]; Mus musculus, 100 mg/kg oral, 1 hour before acetic acid): 40% |
| CN(C)C(=O)NC(=O)Nc1ccc(Cl)cc1 [Compound No. 3] | 0/4 | – | – | – | – | inhibition in vivo at 100 mg/kg ([2]; Mus musculus, po): 50% |
| CN(C)C(=O)N(C)C(=O)Nc1ccccc1F [Compound No. 7, 1,1,3-Trimethyl-5-(2-fluorophenyl)biuret] | 4/4 | 1/4 | 62.5% | 75% | 76% | – |
| Cc1ccc(NC(=O)N(C)C(=O)N(C)C)cc1C [Compound No. 30, 1,1,3-Trimethyl-5-(3,4-dimethylphenyl)biuret] | 1/4 | – | – | – | 31% | ED50 ([3]; Mus musculus): 86 mg/kg |
| CCN(C)C(=O)N(C)C(=O)Nc1ccccc1 [Compound No. 45, 1-ethyl-1,3-dimethyl-5-phenylbiuret] | – | – | – | – | 49% | Analgesic activity, acetic acid-induced stretching method, inhibitory ratio ([2]; 80 mg/kg oral): 50%; ED50 ([3]; Mus musculus): 100 mg/kg |
| CN(C)C(=O)N(C)C(=O)Nc1ccc(F)cc1 [compound 8, 1,1,3-Trimethyl-5-(4-fluorophenyl)biuret] | – | – | 87.5% | 62.5% | 61% | – |
| CN(C)C(=O)N(C)C(=O)Nc1ccccc1Cl [compound 10, 1,1,3-Trimethyl-5-(2-chlorophenyl)biuret] | 0/4 | – | – | 37.5% | 66% | ED50 ([2]; Mus musculus, oral, Δ mark, range in parentheses): 135 mg/kg |
| CN(C)C(=O)N(C)C(=O)Nc1ccc(Cl)cc1Cl [compound 13, 1,1,3-Trimethyl-5-(2,4-dichlorophenyl)biuret] | 3/4 | 0/4 | 50% | 75% | 42% | – |
| CN(C)C(=O)N(C)C(=O)Nc1ccc(Cl)c(Cl)c1 [compound 14, 1,1,3-Trimethyl-5-(3,4-dichlorophenyl)biuret] | 3/4 | 1/4 | 50% | 62.5% | 43% | – |
| CN(C)C(=O)N(C)C(=O)Nc1c(Cl)cccc1Cl [compound 15, 1,1,3-Trimethyl-5-(2,6-dichlorophenyl)biuret] | – | – | 50% | 50% | 29% | – |
| CN(C)C(=O)N(C)C(=O)Nc1ccc(N(C)C)cc1 [compound 19, 1,1,3-Trimethyl-5-(4-dimethylaminophenyl)biuret] | 0/4 | – | 62.5% | 50% | 26% | – |
| CN(C)C(=O)N(C)C(=O)Nc1ccc(O)cc1 [compound 21, 1,1,3-Trimethyl-5-(4-hydroxyphenyl)biuret] | 3/4 | 0/4 | – | – | – | inhibition in vivo at 100 mg/kg ([2]; Mus musculus, po): 37.5%; inhibition in vivo at 100 mg/kg ([3]; Mus musculus, 100 mg/kg oral, 45 minutes before morphine hydrochloride, read-out: Analgesic activity, Haffner method, inhibitory ratio): 12.5% |
